Measured values published in US11530222B2, “Substituted pyrrolopyrimidine and pyrazolopyrimidine as Bruton's tyrosine kinase (BTK) degraders” (ACCUTAR BIOTECHNOLOGY INC., priority 2021, dated 2022).

biological target: T1, BTK (Homo sapiens, UniProt Q06187); assay: BTK degradative activity in a RAMOS cell line (Western blot); format: cell-based; conditions: 6 hours after administration, read-out: RAMOS BTK Degradation DC50
T1 construct: BTK Degradative Activity of Exemplary Compounds of the Present Disclosure in a RAMOS Cell Line; host or cells: RAMOS
T1 sequence (Q06187 whole entry): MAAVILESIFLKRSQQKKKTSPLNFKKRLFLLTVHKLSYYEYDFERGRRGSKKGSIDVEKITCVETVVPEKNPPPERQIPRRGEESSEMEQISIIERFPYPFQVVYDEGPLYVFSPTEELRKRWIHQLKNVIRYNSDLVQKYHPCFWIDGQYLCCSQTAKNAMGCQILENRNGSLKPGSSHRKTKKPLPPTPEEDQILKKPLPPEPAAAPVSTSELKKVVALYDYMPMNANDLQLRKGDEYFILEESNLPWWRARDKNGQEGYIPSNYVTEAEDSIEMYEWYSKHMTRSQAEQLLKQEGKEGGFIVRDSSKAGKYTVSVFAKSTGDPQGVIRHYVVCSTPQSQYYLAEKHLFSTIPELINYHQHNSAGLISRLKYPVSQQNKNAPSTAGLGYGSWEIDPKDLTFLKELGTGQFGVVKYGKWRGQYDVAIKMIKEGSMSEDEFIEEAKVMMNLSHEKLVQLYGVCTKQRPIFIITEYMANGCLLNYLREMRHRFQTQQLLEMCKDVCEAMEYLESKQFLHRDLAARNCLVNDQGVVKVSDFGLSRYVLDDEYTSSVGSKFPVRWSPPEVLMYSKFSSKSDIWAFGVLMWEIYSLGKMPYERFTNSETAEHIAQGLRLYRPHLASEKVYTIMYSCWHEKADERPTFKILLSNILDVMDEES
Procedure: RAMOS (ATCC) cells were plated in 24-well plates at 8×10^5 cells/well in the RPMI growth medium containing 10% heat-inactivated FBS and 1× Penicillin Streptomycin, and then incubated at 37° C. overnight. The following day, the test compound was administered to the cells by using 1000× compound stock solution prepared in DMSO at various concentrations. After administration of the compound, the cells were then incubated at 37° C. for 6 hours.
Upon completion, the cells were collected by centrifugation and lysed in Laemmli sample buffer (1×; VWR International). Proteins in cell lysate were separated by SDS-PAGE and transferred to Odyssey nitrocellulose membranes (Licor) with Iblot® dry blotting transfer system (ThermoFisher). Nonspecific binding was blocked by incubating membranes with Intercept Blocking Buffer (Licor) for 1 hour at room temperature with gentle shaking. The membranes were then incubated overnight at 4° C. with primary antibodies anti-BTK (Cell signaling, cat. #8547) and anti-GAPDH (Cell signaling, cat. #5179) diluted in Intercept Blocking Buffer containing 0.1% Tween 20. After washing 3 times with TBS-T, the membranes were incubated with IRDye® 800CW goat anti-mouse IgG (1:20,000, Licor) or IRDye® 800CW goat anti-rabbit IgG (1:20,000, Licor) for 1 hour. After TBS-T washes, membranes were rinsed in TBS and scanned on Odyssey® CLx Imaging System (Licor). The bands were quantified using Image Studio™ Software (Licor).
Table 3 summarizes the BTK degradative activity of exemplary compounds of the present disclosure in a RAMOS cell line 6 hours after administration. The DC50 values (i.e., the concentration of test compound at which 50% of the target protein is degraded) were calculated. A designation of “A” corresponds to a DC50 value less than 10 nM. A designation of “B” corresponds to a DC50 value greater than or equal to 10 nM and less than 100 nM. A designation of “C” corresponds to a DC50 value greater than or equal to 100 nM.

Row | DC50 [µM] | Compound
1 | ≥ 0.1 | O=C1CCC(N2C(=O)c3ccc(OCCN4CCN(c5ccc(C(=O)N6CCC[C@@H](Nc7ncnc8[nH]cc(C(=O)c9ccc(Oc%10ccccc%10)cc9Cl)c78)C6)cn5)CC4)cc3C2=O)C(=O)N1 (stereo partly drawn) [Compound 5, 5-(2-(4-(5-((R)-3-((5-(2-chloro-4-phenoxybenzoyl)-7H-pyrrolo[2,3-d]pyrimidin-4-yl)amino)piperidine-1-carbonyl)pyridin-2-yl)piperazin-1-yl)ethoxy)-2-(2,6-dioxopiperidin-3-yl)isoindoline-1,3-dione]
2 | ≥ 0.1 | O=C1CCC(N2C(=O)c3ccc(OCCCCCN4CCN(c5ccc(C(=O)N6CCC[C@@H](Nc7ncnc8[nH]cc(C(=O)c9ccc(Oc%10ccccc%10)cc9Cl)c78)C6)cn5)CC4)cc3C2=O)C(=O)N1 (stereo partly drawn) [Compound 6, 5-((5-(4-(5-((R)-3-((5-(2-chloro-4-phenoxybenzoyl)-7H-pyrrolo [2,3-d]pyrimidin-4-yl)amino)piperidine-1-carbonyl)pyridin-2-yl)piperazin-1-yl)pentyl)oxy)-2-(2,6-dioxopiperidin-3-yl)isoindoline-1,3-dione]
3 | ≥ 0.1 | COc1ccc(C(=O)N2CCC(N3CCC(CC(=O)N4CCC[C@@H](Nc5ncnc6[nH]cc(C(=O)c7ccc(Oc8ccccc8)cc7Cl)c56)C4)CC3)CC2)cc1N1CCC(=O)NC1=O [Compound 77, (R)-1-(5-(4-(2-(3-((5-(2-chloro-4-phenoxybenzoyl)-7H-pyrrolo[2,3-d]pyrimidin-4-yl)amino)piperidin-1-yl)-2-oxoethyl)-[1,4′-bipiperidine]-1′-carbonyl)-2-methoxyphenyl) dihydropyrimidine-2,4(1H,3H)-dione]
4 | 0.01 to 0.1 | O=C1CCC(N2C(=O)c3ccc(N4CCN(CCCCC(=O)N5CCC[C@@H](Nc6ncnc7[nH]cc(C(=O)c8ccc(Oc9ccccc9)cc8Cl)c67)C5)CC4)cc3C2=O)C(=O)N1 (stereo partly drawn) [Compound 11, 5-(4-(5-((R)-3-((5-(2-chloro-4-phenoxybenzoyl)-7H-pyrrolo[2,3-d]pyrimidin-4-yl)amino)piperidin-1-yl)-5-oxopentyl)piperazin-1-yl)-2-(2,6-dioxopiperidin-3-yl)isoindoline-1,3-dione]
5 | ≥ 0.1 | COc1ccc(C(=O)N2CCN(CCC3CCN(c4ccc(Nc5ncnc6[nH]cc(C(=O)c7ccc(Oc8ccccc8)cc7Cl)c56)cc4F)CC3)CC2)cc1N1CCC(=O)NC1=O [Compound 76, 1-(5-(4-(2-(1-(4-((5-(2-chloro-4-phenoxybenzoyl)-7H-pyrrolo[2,3-d]pyrimidin-4-yl)amino)-2-fluorophenyl)piperidin-4-yl)ethyl)piperazine-1-carbonyl)-2-methoxyphenyl)dihydropyrimidine-2,4(1H,3H)-dione]
6 | 0.01 to 0.1 | COc1ccc(C(=O)N2CCC(N3CCC(CC(=O)N4CCC(Nc5ncnc6[nH]cc(C(=O)c7ccc(Oc8ccccc8)cc7Cl)c56)CC4)CC3)CC2)cc1N1CCC(=O)NC1=O [Compound 73, 1-(5-(4-(2-(4-((5-(2-chloro-4-phenoxybenzoyl)-7H-pyrrolo[2,3-d]pyrimidin-4-yl)amino)piperidin-1-yl)-2-oxoethyl)-[1,4′-bipiperidine]-1′-carbonyl)-2-methoxyphenyl)dihydropyrimidine-2,4(1H,3H)-dione]
7 | 0.01 to 0.1 | O=C1CCC(N2C(=O)c3ccc(N4CCN(CCCCCCCN5CCC[C@@H](Nc6ncnc7[nH]cc(C(=O)c8ccc(Oc9ccccc9)cc8Cl)c67)C5)CC4)cc3C2=O)C(=O)N1 (stereo partly drawn) [Compound 29, 5-(4-(7-((R)-3-((5-(2-chloro-4-phenoxybenzoyl)-7H-pyrrolo[2,3-d]pyrimidin-4-yl)amino)piperidin-1-yl)heptyl)piperazin-1-yl)-2-(2,6-dioxopiperidin-3-yl)isoindoline-1,3-dione]
8 | ≥ 0.1 | O=C1CCC(N2C(=O)c3cccc(C#CCCCCCC(=O)N4CCC(Nc5ncnc6[nH]cc(C(=O)c7ccc(Oc8ccccc8)cc7Cl)c56)CC4)c3C2=O)C(=O)N1 (centres unmarked) [Compound 38, 4-(8-(4-((5-(2-chloro-4-phenoxybenzoyl)-7H-pyrrolo[2,3-d]pyrimidin-4-yl)amino)piperidin-1-yl)-8-oxooct-1-yn-1-yl)-2-(2,6-dioxopiperidin-3-yl)isoindoline-1,3-dione]
9 | < 0.01 | O=C1CCC(N2C(=O)c3ccc(N4CCC(N5CC(CC(=O)N6CCC(Nc7ncnc8[nH]cc(C(=O)c9ccc(Oc%10ccccc%10)cc9Cl)c78)CC6)C5)CC4)cc3C2=O)C(=O)N1 (centres unmarked) [Compound 48, 5-(4-(3-(2-(4-((5-(2-chloro-4-phenoxybenzoyl)-7H-pyrrolo[2,3-d]pyrimidin-4-yl)amino)piperidin-1-yl)-2-oxoethyl)azetidin-1-yl)piperidin-1-yl)-2-(2,6-dioxopiperidin-3-yl)isoindoline-1,3-dione]
10 | ≥ 0.1 | O=C1CCC(N2C(=O)c3ccc(N4CCN(CCCCCCN5CCC(Nc6ncnc7[nH]cc(C(=O)c8ccc(Oc9ccccc9)cc8Cl)c67)CC5)CC4)cc3C2=O)C(=O)N1 (centres unmarked) [Compound 18, 5-(4-(6-(4-((5-(2-chloro-4-phenoxybenzoyl)-7H-pyrrolo[2,3-d]pyrimidin-4-yl)amino)piperidin-1-yl)hexyl)piperazin-1-yl)-2-(2,6-dioxopiperidin-3-yl)isoindoline-1,3-dione]
11 | ≥ 0.1 | O=C1CCC(N2C(=O)c3ccc(N4CCN(c5ccc(C(=O)N6CCC[C@@H](Nc7ncnc8[nH]cc(C(=O)c9ccc(Oc%10ccccc%10)cc9Cl)c78)C6)cn5)CC4)cc3C2=O)C(=O)N1 (stereo partly drawn) [Compound 2, 5-(4-(5-((R)-3-((5-(2-chloro-4-phenoxybenzoyl)-7H-pyrrolo[2,3-d]pyrimidin-4-yl)amino)piperidine-1-carbonyl)pyridin-2-yl)piperazin-1-yl)-2-(2,6-dioxopiperidin-3-yl)isoindoline-1,3-dione]
12 | < 0.01 | O=C1CCC(N2C(=O)c3ccc(N4CCN(C5CC(CC(=O)N6CCC[C@@H](Nc7ncnc8[nH]cc(C(=O)c9ccc(Oc%10ccccc%10)cc9Cl)c78)C6)C5)CC4)cc3C2=O)C(=O)N1 (stereo partly drawn) [Compound 43, 5-(4-(3-(2-((R)-3-((5-(2-chloro-4-phenoxybenzoyl)-7H-pyrrolo[2,3-d]pyrimidin-4-yl)amino)piperidin-1-yl)-2-oxoethyl)cyclobutyl)piperazin-1-yl)-2-(2,6-dioxopiperidin-3-yl)isoindoline-1,3-dione]
13 | < 0.01 | COc1ccc(C(=O)N2CCN(CCCCCCC(=O)N3CCC(Nc4ncnc5[nH]cc(C(=O)c6ccc(Oc7ccccc7)cc6Cl)c45)CC3)CC2)cc1N1CCC(=O)NC1=O [Compound 78, 1-(5-(4-(7-(4-((5-(2-chloro-4-phenoxybenzoyl)-7H-pyrrolo[2,3-d]pyrimidin-4-yl)amino)piperidin-1-yl)-7-oxoheptyl)piperazine-1-carbonyl)-2-methoxyphenyl)dihydropyrimidine-2,4(1H,3H)-dione]
14 | 0.01 to 0.1 | O=C1CC[C@H](N2C(=O)c3ccc(N4CCN(CC5CCN(C(=O)N6CCC[C@@H](Nc7ncnc8[nH]cc(C(=O)c9ccc(Oc%10ccccc%10)cc9Cl)c78)C6)CC5)CC4)cc3C2=O)C(=O)N1 [Compound 33, 5-(4-((1-((R)-3-((5-(2-chloro-4-phenoxybenzoyl)-7H-pyrrolo[2,3-d]pyrimidin-4-yl)amino)piperidine-1-carbonyl)piperidin-4-yl)methyl)piperazin-1-yl)-2-((S)-2,6-dioxopiperidin-3-yl)isoindoline-1,3-dione]
